Reference: publication PMC12669040, “Tumour-specific STING agonist synthesis via a two-component prodrug system” (Nature Chemistry, 2025)
“And” between values parts separate entries of the source, which are not always exact repeats. Equal entries are not always repeated. Where two headings read alike, the source gives them in different places.

Legend:
[1] = target: T1, wild-type human STING LBD (hSTINGwt 138-379) (Homo sapiens, UniProt Q86WV6, H232R); test: Isothermal titration calorimetry (ITC), reverse titration; type: binding
T1 construct: SUMO (N, cleaved yes); made in house; host or cells: Escherichia coli BL21 (DE3)
Method: Escherichia coli BL21 (DE3) (Thermo Scientific EC0114) was transformed with a pET28a plasmid (Genscript) harbouring the codon-optimized sequence of SUMO-hSTINGwt (aa138-379). Transformed BL21 cells were inoculated into LB medium (50 µg ml^−1 kanamycin) and incubated at 180 rpm, 37 °C overnight. The overnight culture was then diluted (1:100 dilution) in 2× YT medium (50 µg ml^−1 kanamycin) and incubated at 180 rpm, 37 °C until optical density at 600 nm (OD600) reached 0.6 (approximately 3 h). The bacterial culture was then cooled to 16 °C, induced with 0.5 mM isopropyl 1-thio-D-galactopyranoside and incubated overnight at 180 rpm, 16 °C. The bacterial cells were pelleted at 4,000g for 30 min, resuspended in 20 ml of lysis buffer (25 mM HEPES pH 7.5, 150 mM NaCl, 20 mM imidazole and 2 mM TCEP supplied with 2 tablets of cOmplete mini EDTA-free protease inhibitors) and disrupted by sonication on ice. The total lysate was clarified by centrifugation at 22,000g for 30 min. The supernatant was collected and filtered through a 0.45-µm filter (Millipore SLHAR33SS). The clarified lysate was then incubated on a roller with 10 ml bed volume of Ni-NTA resin (Thermo Scientific 88223) at 4 °C for 1 h. The Ni-NTA resin was then packed in a column, flushed with 20 ml of wash buffer (25 mM HEPES pH 7.5, 150 mM NaCl and 20 mM imidazole) and eluted with 40 ml of elution buffer (25 mM HEPES pH 8.0, 150 mM NaCl and 250 mM imidazole). The eluted protein was concentrated to approximately 5 ml (Millipore Amicon 10 kDa molecular weight cut-off (MWCO)) and buffer-exchanged into storage buffer (25 mM HEPES pH 7.5 and 150 mM NaCl). TCEP was then added to a final concentration of 2 mM, and 250 units of SUMO protease (Merck SAE0067) were added. The cleavage reaction mixture was left to stand at 4 °C overnight until LC–MS analysis indicated the completion of the cleavage reaction. The cleavage mixture was incubated with 10 ml bed volume of Ni-NTA resin on a roller at 4 °C for 1 h and packed in a disposable column. The flowthrough was collected, and the resin was further flushed with 20 ml of wash buffer. The eluted fractions were combined, concentrated and further purified by size-exclusion chromatography (Cytiva, Superdex 200 Increase 10/300 GL). The purified protein in storage buffer was concentrated to 330 µM (dimer concentration) as determined by bicinchoninic acid (BCA) assay, aliquoted, flash-frozen in liquid nitrogen and stored at −80 °C for future use.
The binding constants of purified dimers were measured by ITC (Malvern Panalytical AutoITC200) in a reverse-titration format. Stock DMSO solutions of each dimer were dissolved in titration buffer (25 mM HEPES pH 7.5 and 150 mM NaCl) to a final concentration of 25 µM and added to the titration cell. The syringe was filled with 250 µM of purified STING in a matching buffer. Titration was performed at 25 °C with the following parameters: 750 rpm stirring, 0.2 µl initial injection followed by 2-µl injections of the […] every 120 s. Titration of STING protein into blank buffer was separately performed and subtracted from the raw data before the analysis. The background-subtracted titration curves were fitted with the built-in Origin software using the standard one-site model.
Extended Data Fig. 2 Isothermal titration calorimetry (ITC) data for binding constant measurements. Purified hSTINGwt138-379 (250 μM of homodimer) was titrated into each dimer (25 μM) dissolved in a matching buffer (25 mM HEPES pH 7.5, 150 mM NaCl) at 25 °C and 750 rpm stirring. Binding constants were reported as the average from duplicate measurements.

[2] = tested on: THP-1 Lucia ISG cells (interferon pathway); test: Potency test of purified dimers on THP-1 Lucia ISG reporter cells; type: cell-based, human; details: for Raw readings: replicates 1-3
Method: Cells were pelleted (150g, 10 min) and resuspended in the growth medium (40% conditioned) at a density of 1 × 10^6 cells ml^−1. The cell suspension was dispensed (50 µl each well) into a lidded white 96-well plate (BrandTech 781665). Test compounds or DMSO control were diluted in the growth medium and sterilized by filtering through 0.22-µm polyethersulfone (PES) membranes (Merck SLGP033RS). […] Upon cooling down to room temperature, 50 µl of reconstituted luciferase substrate (InvivoGen QUANTI-Luc) was added to each well via the injector of the plate reader (Molecular Devices SpectraMax i3x), and the luminescence output was recorded (4 s delay, 0.1 s integration). Raw signals were divided by the averaged signal of the DMSO-treated control wells and reported in relative luminescence unit (RLU). The dose–response curve of each replicate was fitted individually using the standard 4PL model (GraphPad Prism). The EC50 value of each compound was averaged from three independent experiments and reported as mean ± s.e.m.

THP-1 cells = test: Dilution limits of N1/E4 combination to activate THP-1 cells (IFN-β ELISA); details: IFN-β secretion, 6 h, single component
[3] = substrate: COc1cc2sc(C(=O)CCC(=O)O)cc2cc1SCO[C@@H]1O[C@H](C(=O)O)[C@@H](O)[C@H](O)[C@H]1O; test: Michaelis–Menten kinetics of β-GlcA-N1 cleavage; type: biochemical, human; details: other: 37 °C, 0.2 M sodium acetate pH 4.5, 67 nM enzyme
Method: Human β-glucuronidase (AcroBiosystems BEB-H52H3) was reconstituted in deionized water to a concentration of 1 mg ml^−1. The enzyme stock solution was further diluted in assay buffer (0.2 M acetate pH 4.5) to 10 μg ml^−1 (134 nM). β-GlcA-N1 (50 mM DMSO stock) was twofold serially diluted in assay buffer from 5 to 0.078 mM. The enzyme solution and diluted β-GlcA-N1 were incubated in a transparent 96-well plate and incubated at 37 °C until thermo equilibrium was reached. Then, 100 µl of β-GlcA-N1 at various concentrations was mixed with 100 µl of β-glucuronidase using a multichannel pipette, resulting in the following initial condition: [β-GlcA-N1] = 2.5, 1.25, 0.62, 0.31, 0.16, 0.08 and 0.04 mM; [β-glucuronidase] = 67 nM; 5% DMSO (v/v). The reactions were incubated at 37 °C. At 30-min and 60-min timepoints, a 50-µl portion was withdrawn from each reaction mixture and mixed with 50 µl of quenching buffer (1 M sodium carbonate, 1 mM TCEP). The concentration of liberated N1 was determined by comparing the absorbance of each quenched reaction at 410 nm to a calibration curve of purified N1. Reaction velocities were calculated from the slopes of [N1] versus time plots. The velocity versus [β-GlcA-N1] plot was then fitted with the standard Michaelis–Menten kinetic model (GraphPad Prism).

[4] = target: the molecule itself; test: crystal structure; STING LBD (247 µM) with compound D5 (2.2 mM), sitting drops, 20 °C; 2.31 Å

T1 sequence (Q86WV6 138-379 H232R): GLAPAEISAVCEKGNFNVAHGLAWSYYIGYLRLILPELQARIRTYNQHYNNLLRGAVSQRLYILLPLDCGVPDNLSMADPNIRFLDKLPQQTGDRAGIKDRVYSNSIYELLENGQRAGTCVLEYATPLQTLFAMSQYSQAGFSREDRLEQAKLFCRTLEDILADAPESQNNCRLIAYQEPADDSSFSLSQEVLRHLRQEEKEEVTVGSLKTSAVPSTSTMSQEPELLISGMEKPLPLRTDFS

COc1cc2sc(C(=O)CCC(=O)O)cc2cc1CSCc1cc2cc(C(=O)CCC(=O)O)sc2cc1OC [Compound D7]
Kd ([1]; 25 °C, average of duplicate measurements, read-out: Kd hSTINGwt (binding constant, ITC)): 12 nM | Kd ([1]; ITC run _01, read-out: Kd): 15 nM | Kd ([1]; ITC run _02, read-out: Kd): 8 nM | Raw readings ([2]; Conc 0.508053 nM): 1113 RLU and 627 RLU and 644 RLU | Raw readings ([2]; Conc 1.52416 nM): 1094 RLU and 992 RLU and 1053 RLU | Raw readings ([2]; Conc 4.57247 nM): 783 RLU and 1083 RLU and 911 RLU | Raw readings ([2]; Conc 13.7174 nM): 1811 RLU and 3669 RLU and 2075 RLU | Raw readings ([2]; Conc 41.1523 nM): 26401 RLU and 56159 RLU and 31852 RLU | Raw readings ([2]; Conc 123.457 nM): 95964 RLU and 153788 RLU and 83328 RLU | Raw readings ([2]; Conc 370.37 nM): 127337 RLU and 208679 RLU and 128863 RLU | Raw readings ([2]; Conc 1111.11 nM): 148790 RLU and 255878 RLU and 161073 RLU | Raw readings ([2]; Conc 3333.33 nM): 168239 RLU and 288236 RLU and 165803 RLU | Raw readings ([2]; Conc 10000 nM): 170045 RLU and 271936 RLU and 154582 RLU | fold induction at 0.00152416 µM ([2]; Homo sapiens, THP1-Lucia ISG, 24 h, Concentration 1.52416 nM, three replicates, read-out: Processed reporter response per replicate (reading relative to DMSO)): 1.5 | fold induction at 0.00457247 µM ([2]; Homo sapiens, THP1-Lucia ISG, 24 h, Concentration 4.57247 nM, three replicates, read-out: Processed reporter response per replicate (reading relative to DMSO)): 1.07 | fold induction at 0.0137174 µM ([2]; Homo sapiens, THP1-Lucia ISG, 24 h, Concentration 13.7174 nM, three replicates, read-out: Processed reporter response per replicate (reading relative to DMSO)): 2.48 | fold induction at 0.0411523 µM ([2]; Homo sapiens, THP1-Lucia ISG, 24 h, Concentration 41.1523 nM, three replicates, read-out: Processed reporter response per replicate (reading relative to DMSO)): 36.1 | fold induction at 0.123457 µM ([2]; Homo sapiens, THP1-Lucia ISG, 24 h, Concentration 123.457 nM, three replicates, read-out: Processed reporter response per replicate (reading relative to DMSO)): 131 | fold induction at 0.37037 µM ([2]; Homo sapiens, THP1-Lucia ISG, 24 h, Concentration 370.37 nM, three replicates, read-out: Processed reporter response per replicate (reading relative to DMSO)): 174 | fold induction at 1.11111 µM ([2]; Homo sapiens, THP1-Lucia ISG, 24 h, Concentration 1111.11 nM, three replicates, read-out: Processed reporter response per replicate (reading relative to DMSO)): 204 | fold induction at 3.33333 µM ([2]; Homo sapiens, THP1-Lucia ISG, 24 h, Concentration 3333.33 nM, three replicates, read-out: Processed reporter response per replicate (reading relative to DMSO)): 230 | fold induction at 10 µM ([2]; Homo sapiens, THP1-Lucia ISG, 24 h, Concentration 10000 nM, three replicates, read-out: Processed reporter response per replicate (reading relative to DMSO)): 233 | EC50 ([2]; Homo sapiens, THP1-Lucia ISG, 24 h, three biological replicates, mean ± s.d., read-out: EC50 THP-1): 119 ± 2 nM

COc1cc2sc(C(=O)CCC(=O)O)cc2cc1S [Compound N1]
concentration up to which no STING activation was shown (alone) (THP-1 cells): > 64 µM

B1: human β-glucuronidase (Homo sapiens) (protein)
chain: LQGGMLYPQESPSRECKELDGLWSFRADFSDNRRRGFEEQWYRRPLWESGPTVDMPVPSSFNDISQDWRLRHFVGWVWYEREVILPERWTQDLRTRVVLRIGSAHSYAIVWVNGVDTLEHEGGYLPFEADISNLVQVGPLPSRLRITIAINNTLTPTTLPPGTIQYLTDTSKYPKGYFVQNTYFDFFNYAGLQRSVLLYTTPTTYIDDITVTTSVEQDSGLVNYQISVKGSNLFKLEVRLLDAENKVVANGTGTQGQLKVPGVSLWWPYLMHERPAYLYSLEVQLTAQTSLGPVSDFYTLPVGIRTVAVTKSQFLINGKPFYFHGVNKHEDADIRGKGFDWPLLVKDFNLLRWLGANAFRTSHYPYAEEVMQMCDRYGIVVIDECPGVGLALPQFFNNVSLHHHMQVMEEVVRRDKNHPAVVMWSVANEPASHLESAGYYLKMVIAHTKSLDPSRPVTFVSNSNYAADKGAPYVDVICLNSYYSWYHDYGHLELIQLQLATQFENWYKKYQKPIIQSEYGAETIAGFHQDPPLMFTEEYQKSLLEQYHLGLDQKRRKYVVGELIWNFADFMTEQSPTRVLGNKKGIFTRQRQPKSAAFLLRERYWKIANETRYPHSVAKSQCLENSLFT
notes: purchased AcroBiosystems BEB-H52H3
Km [3]: 319 µM | kcat [3]: 0.48 s⁻¹ | kcat/Km [3]: 1500 M⁻¹ s⁻¹

B2: R232-STING 138-379 (ligand-binding domain of human STING) (domain or fragment, UniProt Q86WV6 138-379, looked up)
chain: GLAPAEISAVCEKGNFNVAHGLAWSYYIGYLRLILPELQARIRTYNQHYNNLLRGAVSQRLYILLPLDCGVPDNLSMADPNIRFLDKLPQQTGDHAGIKDRVYSNSIYELLENGQRAGTCVLEYATPLQTLFAMSQYSQAGFSREDRLEQAKLFCRTLEDILADAPESQNNCRLIAYQEPADDSSFSLSQEVLRHLRQEEKEEVTVGSLKTSAVPSTSTMSQEPELLISGMEKPLPLRTDFS
notes: chains A and B form the dimer; also called STING LBD; hSTING LBD; source: E. coli BL21(DE3), purified (Ni-NTA, TEV cleavage, reverse Ni-NTA, gel filtration)
binding result [4]: binds
